Earlier results as cited in patent publication US7495029B2, “Prodrugs of (2R)-2-propyloctanoic acid for the treatment of stroke” (Merck & Co., Inc, priority 2004, dated 2009).

Key:
[1] = test system: gerbils subjected to a transient global ischemia event; conditions: Jalil et al, Brain Research 2002
[2] = test system: mice; conditions: Tunctan et al, Pharmacological Res 2003
[3] = test system: vascular endothelial cell; conditions: in vitro; Kogure et al, Life Sciences 2002
[4] = test system: rat stroke models; conditions: Kogure et al, Life Sciences 2002
[5] = test system: lipid peroxidation; conditions: in vitro; Kogure et al, Life Sciences 2002

Molecule | neuroprotection against hippocampal damage [1] | endotoxin-induced mortality [2] | vascular endothelial cell damage [3] | development of cerebral edema, cerebral infarction, neurological symptoms and delayed neuronal death [4] | lipid peroxidation [5]
CC1(C)OC(=O)C(c2cccc(F)c2)=C1c1ccc(S(C)(=O)=O)cc1 [DFU] | neuroprotective against hippocampal damage | dose dependently reduce endotoxin-induced mortality | – | – | –
Edaravone | – | – | inhibit | inhibit the development of cerebral edema, cerebral infarction, neurological symptoms and delayed neuronal death | inhibit lipid peroxidation
